{"source": "patent US10766869B2", "about": "“Triazoles for the treatment of demyelinating dieases” (Vertex Pharmaceuticals Incorporated, priority 2015, dated 2020)", "tested_on": "primary rat mixed cortical cells", "assay": "In vitro myelination assay (MBP positive myelin strands, fold myelin pixels above background)", "assay_type": "cell-based", "conditions": "Rattus norvegicus; for fold induction at 1 µM: 1.0 μM compound; for fold induction at 10 µM: 10.0 μM compound", "method_in_brief": "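Compounds at 1.0 and 10.0 μM were incubated 14 days with dissociated P1 rat cortical cells, which were then fixed and immunostained for MBP. Myelination was scored as fold MBP myelin pixels per well over the no-compound baseline.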", "key": {"[1]": {"conditions": "relative to baseline of no added compound, read-out: Fold myelin pixels above background"}, "[2]": {"conditions": "relative to baseline of no added compound, read-out: Fold myelin pixels above background, 1.0 μM"}, "[3]": {"conditions": "relative to baseline of no added compound, read-out: Fold myelin pixels above background, 10.0 μM"}, "[4]": {"conditions": "read-out: Fold myelin pixels above background relative to baseline of no added compound"}}, "note": "Like-named read-outs stand apart in the source and are kept apart here."}
{"compound": "Fc1cc(Cl)cc(-n2cnc(Nc3cc(C4CC4)cc(N4CCN(C5COC5)CC4)c3)n2)c1", "note": "[Compound 400, 1-(3-chloro-5-fluoro-phenyl)-N-[3-cyclopropyl-5-[4-(oxetan-3-yl)piperazin-1-yl]phenyl]-1,2,4-triazol-3-amine]", "values": [{"measurement": "fold induction at 1 µM", "setting": "[1]", "result": "1000 to 10000"}, {"measurement": "fold induction at 10 µM", "setting": "[1]", "result": "≤ 1"}]}
{"compound": "COc1cc(F)cc(-n2cnc(Nc3cc(C)cc(N4CCN(C5COC5)CC4)c3)n2)c1", "note": "[Compound 56, 1-(3-fluoro-5-methoxy-phenyl)-N-[3-methyl-5-[4-(oxetan-3-yl)piperazin-1-yl]phenyl]-1,2,4-triazol-3-amine]", "values": [{"measurement": "fold induction at 1 µM", "setting": "[2]", "result": "100 to 1000"}, {"measurement": "fold induction at 10 µM", "setting": "[3]", "result": "100 to 1000"}]}
{"compound": "Cc1cc(Nc2ncn(-c3ccc(F)c(F)c3)n2)cc(OCc2ccn(C)n2)c1", "note": "[Compound 714, 1-(3,4-difluorophenyl)-N-[3-methyl-5-[(1-methylpyrazol-3-yl)methoxy]phenyl]-1,2,4-triazol-3-amine]", "values": [{"measurement": "fold induction at 1 µM", "setting": "[1]", "result": "10 to 100"}, {"measurement": "fold induction at 10 µM", "setting": "[1]", "result": "10 to 100"}]}
{"compound": "Cc1cc(Nc2ncn(-c3cnccn3)n2)cc(N2CCC(C3COC3)CC2)c1", "note": "[Compound 521, N-[3-methyl-5-[4-(oxetan-3-yl)-1-piperidyl]phenyl]-1-pyrazin-2-yl-1,2,4-triazol-3-amine]", "values": [{"measurement": "fold induction at 1 µM", "setting": "[1]", "result": "100 to 1000"}, {"measurement": "fold induction at 10 µM", "setting": "[1]", "result": "100 to 1000"}]}
{"compound": "Cc1cc(Nc2ncn(-c3ccccc3)n2)cc(N2CCN(C3CC3)C(=O)C2)c1", "note": "[Compound 214, l-cyclopropyl-4-[3-methyl-5-[(1-phenyl-1,2,4-triazol-3-yl)amino]phenyl]piperazin-2-one]", "values": [{"measurement": "fold induction at 1 µM", "setting": "[2]", "result": "10 to 100"}, {"measurement": "fold induction at 10 µM", "setting": "[3]", "result": "1000 to 10000"}]}
{"compound": "COCCNc1cc(F)cc(-n2cnc(Nc3cc(C)cc(N4CC(F)C4)c3)n2)c1", "note": "[Compound 766, N-[3-(3-fluoroazetidin-1-yl)-5-methyl-phenyl]-1-[3-fluoro-5-(2-methoxyethylamino)phenyl]-1,2,4-triazol-3-amine]", "values": [{"measurement": "fold induction at 1 µM", "setting": "[1]", "result": "1 to 10"}, {"measurement": "fold induction at 10 µM", "setting": "[1]", "result": "≤ 1"}]}
{"compound": "CC1CCN(c2cc(Nc3ncn(-c4cc(F)cc(F)c4)n3)cc(C3CC3)n2)CC1", "note": "[Compound 244, 2-cyclopropyl-N-[1-(3,5-difluorophenyl)-1,2,4-triazol-3-yl]-6-(4-methyl-1-piperidyl)pyridin-4-amine]", "values": [{"measurement": "fold induction at 1 µM", "setting": "[2]", "result": "1 to 10"}, {"measurement": "fold induction at 10 µM", "setting": "[3]", "result": "10 to 100"}]}
{"compound": "Cc1cc(Nc2ncn(-c3cc(F)cc(F)c3)n2)cc(C2(O)CCN(C3COC3)CC2)c1", "note": "[Compound 516, 4-[3-[[1-(3,5-difluorophenyl)-1,2,4-triazol-3-yl]amino]-5-methyl-phenyl]-1-(oxetan-3-yl)piperidin-4-ol]", "values": [{"measurement": "fold induction at 1 µM", "setting": "[1]", "result": "10 to 100"}, {"measurement": "fold induction at 10 µM", "setting": "[1]", "result": "10 to 100"}]}
{"compound": "COc1cccc(-n2cnc(Nc3cc(C)cc(N4CCN(C5COC5)CC4)c3)n2)c1", "note": "[Compound 86, 1-(3-methoxyphenyl)-N-[3-methyl-5-[4-(oxetan-3-yl)piperazin-1-yl]phenyl]-1,2,4-triazol-3-amine]", "values": [{"measurement": "fold induction at 1 µM", "setting": "[2]", "result": "100 to 1000"}, {"measurement": "fold induction at 10 µM", "setting": "[3]", "result": "100 to 1000"}]}
{"compound": "Cc1cc(Nc2ncn(-c3cc(F)cc(F)c3)n2)cc(N2CCN([C@H]3CCOC3)CC2)c1", "note": "[Compound 530, 1-(3,5-difluorophenyl)-N-[3-methyl-5-[4-[(3S)-tetrahydrofuran-3-yl]piperazin-1-yl]phenyl]-1,2,4-triazol-3-amine]", "values": [{"measurement": "fold induction at 1 µM", "setting": "[1]", "result": "100 to 1000"}, {"measurement": "fold induction at 10 µM", "setting": "[1]", "result": "100 to 1000"}]}
{"compound": "Cc1cc(NCCN2CCOC(C)C2)cc(Nc2ncn(-c3cc(F)cc(F)c3)n2)c1", "note": "(centres unmarked) [Compound 928, N1-[1-(3,5-difluorophenyl)-1,2,4-triazol-3-yl]-5-methyl-N3-[2-(2-methylmorpholin-4-yl)ethyl]benzene-1,3-diamine]", "values": [{"measurement": "fold induction at 1 µM", "setting": "[4]", "result": "10 to 100"}, {"measurement": "fold induction at 10 µM", "setting": "[4]", "result": "≤ 1"}]}
{"compound": "Cc1cc(Nc2ncn(-c3ccccc3)n2)cc(C2CCNC2)c1", "note": "(centres unmarked) [Compound 39, N-(3-methyl-5-pyrrolidin-3-yl-phenyl)-1-phenyl-1,2,4-triazol-3-amine]", "values": [{"measurement": "fold induction at 1 µM", "setting": "[2]", "result": "1000 to 10000"}, {"measurement": "fold induction at 10 µM", "setting": "[3]", "result": "≤ 1"}]}
{"compound": "COCCCN1CCC(Nc2cc(C)cc(Nc3ncn(-c4ccccc4)n3)c2)CC1", "note": "[Compound 182, N1-[1-(3-methoxypropyl)-4-piperidyl]-5-methyl-N3-(1-phenyl-1,2,4-triazol-3-yl)benzene-1,3-diamine]", "values": [{"measurement": "fold induction at 1 µM", "setting": "[2]", "result": "1000 to 10000"}, {"measurement": "fold induction at 10 µM", "setting": "[3]", "result": "1 to 10"}]}
